Experimental data as given in US8795222B2, “Device and method for treatment of surface infections with nitric oxide” (Pulmonox Technologies Corp., priority 2000, dated 2014).

Columns and labels:
[1] = tested on: MRSA; assay: Bacteriocidal time study, 200 ppm gNO, saline suspension; type: cell-based, Methicillin Resistant S. aureus
Description: (§1) Following the dose and time ranging studies, a series of experiments were performed to determine the time required to effectively induce a bacteriocidal effect with 200 parts per million of gNO, a concentration just above the dose used in the dose-ranging study, on a representative collection of drug resistant gram-positive and gram-negative strains of bacteria associated with clinical infection. A successful bacteriocidal effect was defined as a decrease in bacteria greater than 3 log10 cfu/ml. Further, C. albicans, Methicillin Resistant S. aureus (MRSA), a particularly resistant strain of P. aeruginosa from a cystic fibrosis patient, Group B Streptococcus, and M. smegmatis were also included to see if yeast, multi-drug resistant strains of bacteria, and actinomycetes have a similar response. The drug-resistant bacteria represent a variety of pathogens that contribute to both respiratory and wound infections.
(§2) For these experiments, saline was selected as a suspension media because it would not mask the direct effect of gNO as a bacteriocidal, whereas fully supplemented growth medium might introduce external variables (e.g., buffer or react with gNO). Other media might also provide metabolites and replenish nutrients that produce enzymes that protect bacteria from oxidative and nitrosative damage, thereby masking the effect of gNO. […] In saline, the colonies were static but remained viable. This is similar to the approach of Webert and Jean's use of animal models. Webert K E, et al (2000), Effects of inhaled nitric oxide in a rat model of Pseudomonas aeruginosa pneumonia, Crit. Care Med, 28(7):2397-2405 and Jean D, et al., (2002) Beneficial effects of nitric oxide inhalation on pulmonary bacterial clearance, Critical Care Medicine. 30(2):442-7.
(§3) The latent period was then followed by an abrupt death of all cells. Gram negative and gram positive bacteria, antibiotic resistant bacterial strains, yeast and mycobacteria were all susceptible to 200 ppm gNO. Of importance, is the observation that the two drug resistant bacteria strains were also susceptible.

[2] = tested on: Acinetobacter sp.; assay: as above; type: cell-based
Description: as §1, §2, §3

[3] = tested on: E. coli; assay: as above; type: cell-based
Description: as §1, §2, §3

[4] = tested on: Enterobacter sp.; assay: as above; type: cell-based
Description: as §1, §2, §3

[5] = tested on: Kiebsiella sp. #2; assay: as above; type: cell-based
Description: as §1, §2, §3

[6] = tested on: Klebsiella sp. #3; assay: as above; type: cell-based
Description: as §1, §2, §3

[7] = tested on: P. aeruginosa (ATCC); assay: as above; type: cell-based
Description: as §1, §2, §3

[8] = tested on: S. aureus (ATCC); assay: as above; type: cell-based
Description: as §1, §2, §3

[9] = tested on: S. maltophilia; assay: as above; type: cell-based
Description: as §1, §2, §3

[10] = tested on: Serracia sp.; assay: as above; type: cell-based
Description: as §1, §2, §3

[11] = tested on: non-healing venous leg ulcer; assay: Human case study, non-healing venous leg ulcer, topical gNO; type: in vivo
Source text: This case study involved a person with a 30 year history of severe venous disease, both deep and superficial, related to deep vein thrombophlebitis. Initially, while, the patient developed bilateral non-healing venous leg ulcers that were surgically treated. The surgical sites healed but the ulcers continued to recur. Initially, the patient presented with a small ulcer located just below the medial malleolus of the left ankle.
Arrangements were made to meet at the patient's home the following day to set up the equipment and for them to have a repeat training on the use of the treatment system. Training included use of the system as well as safety information on using the gas equipment.
Nitric oxide gas (ViaNOx-H, VIASYS Healthcare, Yorba Linda, Calif., USA) was applied to the lower extremity with use of a gas-diluting delivery system (CidaNOx Delivery System) designed specifically for the study (PulmoNOx Medical Inc., Edmonton, Alberta, Canada). This CidaNOx delivery system contains an internal air pump for dilution of the gNO and a flow control circuit to dilute the 800 parts per million (ppm) in the NO source cylinder down to the therapeutic level of 200 ppm. The total flow from the system was 1.0 L/min and included one-quarter of a liter per minute (250 ml/min) flow of gNO. Several internal pressure sensors assure the dilution flow is operational and monitor the system. The flow of nitric oxide was limited to 250 ml/min by a mechanically set pressure regulator and a mechanical flowmeter that have no external controls that could be changed by the patient. The concentration of nitric oxide delivered was assured by measurement of the CidaNOx output with a calibrated nitric oxide analyzer (AeroNOx, Pulmonox Medical Inc.) that is approved for monitoring inhaled NO in human patients.
The 200 ppm gNO from the CidaNOx Delivery System flowed out to a single patient use plastic boot that covered the patient's lower extremity. […] A secondary air outlet from the CidaNOx unit managed the inflation of the cuff. The patient connected the pump outlet to the cuff connector until it was inflated and then the connector was sealed closed with the provided clamp. […]
To explore the potential for wound bed preparation and accelerated wound healing from prolonged use, treatment regimen beyond three days was chosen and which was stopped at 14 days to evaluate the short-term effects and explore the possibility that the short-term effects would improve the longer-term outcome. […] The patient recorded the date, time, and duration of each treatment period on a data sheet, and any significant observations related to the wound, treatment, or equipment. The wound size (cm^2) was measured using digital photography and densitometry technique (Scion Image −4.02, Scion Corp., Frederick Md., USA). […]

[N]=O [gNO, nitric oxide]
LD100 [1]: 5 h | Latent Period* [1]: 3 h | −2.5 Log10 ([1]; time to −2.5 log10 cfu/ml): 4.2 hrs | LD100 [2]: 6 h | Latent Period* [2]: 4 h | −2.5 Log10 ([2]; time to −2.5 log10 cfu/ml): 5 hrs | LD100 [3]: 5 h | Latent Period* [3]: 3 h | −2.5 Log10 ([3]; time to −2.5 log10 cfu/ml): 4.2 hrs | LD100 [4]: 6 h | Latent Period* [4]: 4 h | −2.5 Log10 ([4]; time to −2.5 log10 cfu/ml): 5.3 hrs | LD100 [5]: 5 h | Latent Period* [5]: 2 h | −2.5 Log10 ([5]; time to −2.5 log10 cfu/ml): 4.1 hrs | LD100 [6]: 6 h | Latent Period* [6]: 3 h | −2.5 Log10 ([6]; time to −2.5 log10 cfu/ml): 5.1 hrs | LD100 [7]: 3 h | Latent Period* [7]: 1 h | −2.5 Log10 ([7]; time to −2.5 log10 cfu/ml): 2.1 hrs | LD100 [8]: 4 h | Latent Period* [8]: 3 h | −2.5 Log10 ([8]; time to −2.5 log10 cfu/ml): 3.3 hrs | LD100 [9]: 4 h | Latent Period* [9]: 2 h | −2.5 Log10 ([9]; time to −2.5 log10 cfu/ml): 2.8 hrs | LD100 [10]: 6 h | Latent Period* [10]: 4 h | −2.5 Log10 ([10]; time to −2.5 log10 cfu/ml): 4.9 hrs | ulcer status ([11]; 26 weeks post NO discontinuation): completely healed and reepithelialized | wound size, day 3 ([11]; 200 ppm gNO nightly, day 3, 24 hours cumulative exposure, p=0.014): Significant wound size reduction | reduction in wound area ([11]; 200 ppm gNO nightly, end of therapy at day 14): approximately 75% | wound healed ([11]; six weeks after the end of 14-day 200 ppm gNO treatment): about 90%
